Values of other authors, collected in US4639511A, “Des-19-leucine-calcitonin analogs” (Armour Pharmaceutical Company, priority 1985, dated 1987).
Positions of bridges follow the written chain, without caps; N, C: chain ends. No end group written: not given here.

Columns and labels:
[1] = literature values, Monikawa et al.
[2] = tested on: serum calcium concentration; settings: standard used in the rat assay

Substance	hypocalcemic potency [1]	potency of the standard salmon calcitonin, independently determined [2]
(1,7-α-L-aminosuberic acid)eel calcitonin	about 3400 IU/mg.	
eel calcitonin (CSNLSTCVLGKLSQELHKLQTYPRTDVGAGTP-NH2; disulfide 1-7; ends not checked; UniProt P01262 1-32, looked up) [synthetic eel calcitonin, synthetic eel calcitonin from Monikawa et al]	around 4300 IU/mg.	
salmon calcitonin [standard salmon calcitonin]		greater than 4,000 IU/mg
